Assay: ESI-MS analysis of complex formation with a series of other metal ions
Type: binding
Details: panel of metals
Procedure: Eight equivalents of M(NO3)2·xH2O or MSO4·xH2O were reacted with 1 eq. of DPM-1001, DPM-1003 or analog 2 (1 mM in H2O). The reaction solutions were stirred at RT, 40° C. and 80° C. for 2 h. Each sample was diluted 5-fold in 50% methanol, 0.1% formic acid and loaded into a 500 μL syringe. A Thermo Vantage triple quadrupole mass spectrometer (Thermo Scientific), equipped with an HESI spray source was coupled to an Accela HPLC system (Thermo Scientific). Mobile phase A consisted of 0.1% formic acid and mobile phase B consisted of 0.1% formic acid in methanol. Isocratic flow was set to 50% B at 200 μL/min. 200 μl samples were injected into the LC flow line via syringe pump at 10 μL/min and electrosprayed into the Vantage triple quadrupole mass spectrometer. A spray voltage of 4.3 kV was used along with a capillary temperature of 350° C. Each full MS scan was 0.5 s and data were collected with a scan range of 200 m/z to 900 m/z over 1 min.

## COC(=O)CCC(C)C1CCC2C3C(O)CC4CC(NCCCCNCc5ccccn5)CCC4(C)C3CCC12C (stereo not shown) [DPM-1001]
  complex formation with other metals: none formed a complex with the compound

Source: patent US12178825B2, “Method and compositions for forming a copper-containing complex and uses thereof” (COLD SPRING HARBOR LABORATORY, priority 2017, dated 2024)
